# According to patent US20260356840A1, “[1,2,4]TRIAZOLO[1,5-A]PYRIMIDINONE WRN INHIBITORS” (Nimbus Wadjet, Inc., priority 2023, published 2026):
# Target: T1, human Werner helicase (Uniprot Q14191, amino acids 517-1235 with L1074F point mutation), WRN-BV08 (Homo sapiens, UniProt Q14191, L1074F)
# T1 construct: Uniprot Q14191, amino acids 517-1235 with L1074F point mutation; TEV cleavable 8xHis tag (C, cleaved yes); made in house; host or cells: Sf9 insect cells (baculovirus, pFastBac)
# Assay: WRN (BV08) ADP-Glo Assay
# Type: biochemical
# T1 sequence (Q14191 517-1235 L1074F): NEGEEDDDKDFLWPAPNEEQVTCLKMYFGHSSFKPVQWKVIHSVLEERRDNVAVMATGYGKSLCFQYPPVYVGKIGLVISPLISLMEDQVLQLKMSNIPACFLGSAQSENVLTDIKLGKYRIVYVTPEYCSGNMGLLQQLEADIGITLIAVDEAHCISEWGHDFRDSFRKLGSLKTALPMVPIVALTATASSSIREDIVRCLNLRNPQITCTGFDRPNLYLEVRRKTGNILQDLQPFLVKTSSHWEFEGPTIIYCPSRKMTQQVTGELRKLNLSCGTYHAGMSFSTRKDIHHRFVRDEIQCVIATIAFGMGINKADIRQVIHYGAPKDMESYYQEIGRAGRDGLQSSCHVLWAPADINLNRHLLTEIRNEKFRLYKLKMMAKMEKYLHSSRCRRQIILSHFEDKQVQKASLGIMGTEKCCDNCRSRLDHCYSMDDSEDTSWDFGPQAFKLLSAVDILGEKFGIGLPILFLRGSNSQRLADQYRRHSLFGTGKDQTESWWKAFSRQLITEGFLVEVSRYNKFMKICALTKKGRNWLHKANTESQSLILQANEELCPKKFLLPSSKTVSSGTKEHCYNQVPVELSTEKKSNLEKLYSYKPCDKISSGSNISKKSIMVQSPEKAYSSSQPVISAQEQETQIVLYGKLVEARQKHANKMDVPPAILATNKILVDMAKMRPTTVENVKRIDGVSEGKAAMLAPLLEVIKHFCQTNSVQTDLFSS
row,IC50 [nM],Compound
1,5 to 50,"CCc1c(N2CCN(C(=O)c3cnn(C)c3)CC2)c(=O)n2nc(-c3cnn(CC(C)(C)O)c3)nc2n1CC(=O)Nc1ccc(C(F)(F)F)cc1Cl [Compound I-56, N-[2-chloro-4-(trifluoromethyl)phenyl]-2-{5-ethyl-2-[1-(2-hydroxy-2-methylpropyl)-1H-pyrazol-4-yl]-6-[4-(1-methyl-1H-pyrazole-4-carbonyl)piperazin-1-yl]-7-oxo-4H,7H-[1,2,4]triazolo[1,5-a]pyrimidin-4-yl}acetamide]"
2,5 to 50,"CCc1c(N2CCN(C(C)=O)CC2)c(=O)n2nc(C3=CCOCC3)nc2n1CC(=O)Nc1ccc(C(F)(F)F)cc1Cl [Compound I-16, 2-[6-(4-acetylpiperazin-1-yl)-2-(3,6-dihydro-2H-pyran-4-yl)-5-ethyl-7-oxo-4H,7H-[1,2,4]triazolo[1,5-a]pyrimidin-4-yl]-N-[2-chloro-4-(trifluoromethyl)phenyl]acetamide]"
3,5 to 50,"CCc1c(N2CCN(C(=O)c3cc(C)no3)CC2)c(=O)n2nc(-c3ccnc(OC)c3)nc2n1CC(=O)Nc1ccc(C(F)(F)F)cc1Cl [Compound I-65, N-[2-chloro-4-(trifluoromethyl)phenyl]-2-[5-ethyl-2-(2-methoxypyridin-4-yl)-6-[4-(3-methyl-1,2-oxazole-5-carbonyl)piperazin-1-yl]-7-oxo-4H,7H-[1,2,4]triazolo[1,5-a]pyrimidin-4-yl]acetamide]"
